Test results as given in PMC10924921, “Mi-2β promotes immune evasion in melanoma by activating EZH2 methylation” (Nature Communications, 2024).

What was measured:
Experiment in all cases: biochemical
Set-up in all cases: KINOMEscan active-site competition binding panel (468 kinase assays), per cent of control at 1000 nM
Conditions in all cases: KINOMEscan per cent of control (binding competition); read-out: Percent Control
[1] = molecular target: T1, ABL1(F317L)-nonphosphorylated (Homo sapiens, UniProt P00519, F317L)
T1 construct: nonphosphorylated
Description: (§1) Figure S7 / Percent Control

[2] = molecular target: T2, ABL1(H396P)-phosphorylated (Homo sapiens, UniProt P00519, H396P)
T2 construct: phosphorylated
Description: as §1

[3] = molecular target: T3, ABL1(Y253F)-phosphorylated (Homo sapiens, UniProt P00519, Y253F)
T3 construct: phosphorylated
Description: as §1

BTK = BTK (Homo sapiens, UniProt Q06187)
Description: as §1

CTK = molecular target: T4, CTK (Homo sapiens, UniProt P42679)
T4 construct: gene MATK
Description: as §1

DCAMKL2 = molecular target: T5, DCAMKL2 (Homo sapiens, UniProt Q8N568)
T5 construct: gene DCLK2
Description: as §1

DYRK1A = DYRK1A (Homo sapiens, UniProt Q13627)
Description: as §1

EPHA4 = EPHA4 (Homo sapiens, UniProt P54764)
Description: as §1

ERK1 = molecular target: T6, ERK1 (Homo sapiens, UniProt P27361)
T6 construct: gene MAPK3
Description: as §1

INSR = INSR (Homo sapiens, UniProt P06213)
Description: as §1

KIT-autoinhibited = KIT-autoinhibited (Homo sapiens, UniProt P10721)
Description: as §1

MAP4K2 = MAP4K2 (Homo sapiens, UniProt Q12851)
Description: as §1

MARK4 = MARK4 (Homo sapiens, UniProt Q96L34)
Description: as §1

MERTK = MERTK (Homo sapiens, UniProt Q12866)
Description: as §1

MST1 = molecular target: T7, MST1 (Homo sapiens, UniProt Q13043)
T7 construct: gene STK4
Description: as §1

NEK1 = NEK1 (Homo sapiens, UniProt Q96PY6)
Description: as §1

NEK7 = NEK7 (Homo sapiens, UniProt Q8TDX7)
Description: as §1

NLK = NLK (Homo sapiens, UniProt Q9UBE8)
Description: as §1

PIK3CA(H1047L) = PIK3CA(H1047L) (Homo sapiens, UniProt P42336, H1047L)
Description: as §1

[4] = molecular target: T8, RPS6KA5(Kin.Dom.2-C-terminal) (Homo sapiens, UniProt O75582)
T8 construct: Kin.Dom.2-C-terminal
Description: as §1

SNRK = SNRK (Homo sapiens, UniProt Q9NRH2)
Description: as §1

TESK1 = TESK1 (Homo sapiens, UniProt Q15569)
Description: as §1

TNIK = TNIK (Homo sapiens, UniProt Q9UKE5)
Description: as §1

TSSK1B = TSSK1B (Homo sapiens, UniProt Q9BXA7)
Description: as §1

T8 sequence (O75582 whole entry): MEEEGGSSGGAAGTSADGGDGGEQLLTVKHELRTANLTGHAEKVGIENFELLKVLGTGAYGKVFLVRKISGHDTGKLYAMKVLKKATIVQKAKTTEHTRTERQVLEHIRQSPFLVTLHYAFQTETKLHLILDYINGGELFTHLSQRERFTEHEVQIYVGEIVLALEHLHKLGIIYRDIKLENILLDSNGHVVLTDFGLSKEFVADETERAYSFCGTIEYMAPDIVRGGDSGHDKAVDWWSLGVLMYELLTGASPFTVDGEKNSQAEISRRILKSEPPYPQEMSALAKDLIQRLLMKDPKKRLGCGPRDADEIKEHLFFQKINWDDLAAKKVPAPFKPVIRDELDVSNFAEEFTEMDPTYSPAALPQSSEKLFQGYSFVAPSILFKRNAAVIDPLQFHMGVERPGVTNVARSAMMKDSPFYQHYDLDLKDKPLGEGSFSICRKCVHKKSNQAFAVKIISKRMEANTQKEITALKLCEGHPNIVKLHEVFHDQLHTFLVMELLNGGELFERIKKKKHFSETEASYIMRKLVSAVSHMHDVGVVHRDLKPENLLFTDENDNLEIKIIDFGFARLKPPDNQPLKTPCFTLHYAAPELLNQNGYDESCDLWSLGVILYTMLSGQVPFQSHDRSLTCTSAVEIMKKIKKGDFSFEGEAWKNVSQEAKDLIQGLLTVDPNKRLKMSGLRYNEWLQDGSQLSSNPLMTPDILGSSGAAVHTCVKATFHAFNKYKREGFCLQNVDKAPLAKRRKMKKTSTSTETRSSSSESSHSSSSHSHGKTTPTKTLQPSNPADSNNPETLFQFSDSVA
MERTK, sequence (Q12866 whole entry): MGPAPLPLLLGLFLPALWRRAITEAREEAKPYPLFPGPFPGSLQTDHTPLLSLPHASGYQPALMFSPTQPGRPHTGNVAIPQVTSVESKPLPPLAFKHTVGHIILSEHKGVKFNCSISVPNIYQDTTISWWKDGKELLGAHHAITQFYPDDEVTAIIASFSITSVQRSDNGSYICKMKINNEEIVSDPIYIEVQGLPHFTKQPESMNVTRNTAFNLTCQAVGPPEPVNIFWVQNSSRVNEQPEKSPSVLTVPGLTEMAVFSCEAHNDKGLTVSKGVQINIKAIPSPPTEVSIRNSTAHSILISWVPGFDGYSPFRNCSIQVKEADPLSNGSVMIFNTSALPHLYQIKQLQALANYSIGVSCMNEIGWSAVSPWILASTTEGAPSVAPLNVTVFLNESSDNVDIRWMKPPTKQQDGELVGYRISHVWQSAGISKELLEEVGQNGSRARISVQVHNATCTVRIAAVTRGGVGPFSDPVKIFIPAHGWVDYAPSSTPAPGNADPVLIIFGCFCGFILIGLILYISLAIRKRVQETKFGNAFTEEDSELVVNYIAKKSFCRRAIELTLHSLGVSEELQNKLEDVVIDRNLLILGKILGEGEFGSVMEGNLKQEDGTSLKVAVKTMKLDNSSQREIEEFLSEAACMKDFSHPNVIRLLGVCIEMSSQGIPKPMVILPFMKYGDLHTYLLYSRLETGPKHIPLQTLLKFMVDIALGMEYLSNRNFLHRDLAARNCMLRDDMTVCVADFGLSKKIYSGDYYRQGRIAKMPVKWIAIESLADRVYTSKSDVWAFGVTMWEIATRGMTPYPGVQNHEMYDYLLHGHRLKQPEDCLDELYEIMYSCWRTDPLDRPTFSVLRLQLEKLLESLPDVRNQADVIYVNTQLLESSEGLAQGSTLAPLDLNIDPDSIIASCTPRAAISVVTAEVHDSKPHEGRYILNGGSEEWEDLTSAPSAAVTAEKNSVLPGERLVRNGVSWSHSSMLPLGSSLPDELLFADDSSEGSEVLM
T5 sequence (Q8N568 whole entry): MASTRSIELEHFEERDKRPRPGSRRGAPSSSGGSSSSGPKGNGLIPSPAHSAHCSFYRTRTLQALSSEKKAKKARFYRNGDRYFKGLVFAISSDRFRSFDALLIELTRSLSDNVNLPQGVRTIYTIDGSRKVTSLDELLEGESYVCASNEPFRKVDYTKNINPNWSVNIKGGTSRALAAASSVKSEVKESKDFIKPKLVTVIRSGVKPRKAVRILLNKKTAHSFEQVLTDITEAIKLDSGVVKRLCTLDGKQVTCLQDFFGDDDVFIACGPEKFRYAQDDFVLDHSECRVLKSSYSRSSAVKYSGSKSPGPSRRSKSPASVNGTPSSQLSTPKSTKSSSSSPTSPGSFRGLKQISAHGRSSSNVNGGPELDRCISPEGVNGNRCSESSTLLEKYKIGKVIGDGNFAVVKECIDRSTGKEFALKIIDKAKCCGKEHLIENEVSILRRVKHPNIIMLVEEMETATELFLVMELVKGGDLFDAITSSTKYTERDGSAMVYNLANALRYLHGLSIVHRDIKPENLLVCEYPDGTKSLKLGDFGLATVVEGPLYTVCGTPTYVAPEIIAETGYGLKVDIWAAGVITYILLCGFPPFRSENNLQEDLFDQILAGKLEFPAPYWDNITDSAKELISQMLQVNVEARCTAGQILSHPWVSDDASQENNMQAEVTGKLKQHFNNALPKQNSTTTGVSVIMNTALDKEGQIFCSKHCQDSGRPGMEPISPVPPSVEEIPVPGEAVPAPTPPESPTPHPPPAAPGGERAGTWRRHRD
T6 sequence (P27361 whole entry): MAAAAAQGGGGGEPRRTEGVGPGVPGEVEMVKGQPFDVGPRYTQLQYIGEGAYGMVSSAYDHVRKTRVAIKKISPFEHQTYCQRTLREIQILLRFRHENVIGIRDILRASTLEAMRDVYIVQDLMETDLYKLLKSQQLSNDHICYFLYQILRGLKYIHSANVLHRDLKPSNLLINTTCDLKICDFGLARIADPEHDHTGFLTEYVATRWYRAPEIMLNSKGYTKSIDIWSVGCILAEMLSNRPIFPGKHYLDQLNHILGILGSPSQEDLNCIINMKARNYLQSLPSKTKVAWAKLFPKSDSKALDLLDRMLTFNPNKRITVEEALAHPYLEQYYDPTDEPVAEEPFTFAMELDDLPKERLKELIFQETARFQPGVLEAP
T4 sequence (P42679 whole entry): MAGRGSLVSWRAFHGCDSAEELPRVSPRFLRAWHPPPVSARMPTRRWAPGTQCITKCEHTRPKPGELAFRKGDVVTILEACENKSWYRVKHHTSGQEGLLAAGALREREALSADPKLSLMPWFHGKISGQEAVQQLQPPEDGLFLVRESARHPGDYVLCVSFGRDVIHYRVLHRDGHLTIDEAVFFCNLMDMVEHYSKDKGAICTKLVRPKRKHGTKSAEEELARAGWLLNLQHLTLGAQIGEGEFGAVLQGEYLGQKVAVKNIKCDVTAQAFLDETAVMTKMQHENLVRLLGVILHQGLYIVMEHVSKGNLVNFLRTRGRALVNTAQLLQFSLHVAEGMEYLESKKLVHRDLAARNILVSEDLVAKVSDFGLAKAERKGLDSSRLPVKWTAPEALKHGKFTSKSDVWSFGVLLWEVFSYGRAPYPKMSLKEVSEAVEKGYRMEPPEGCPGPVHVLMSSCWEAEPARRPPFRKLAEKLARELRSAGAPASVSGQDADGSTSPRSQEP
TNIK, sequence (Q9UKE5 whole entry): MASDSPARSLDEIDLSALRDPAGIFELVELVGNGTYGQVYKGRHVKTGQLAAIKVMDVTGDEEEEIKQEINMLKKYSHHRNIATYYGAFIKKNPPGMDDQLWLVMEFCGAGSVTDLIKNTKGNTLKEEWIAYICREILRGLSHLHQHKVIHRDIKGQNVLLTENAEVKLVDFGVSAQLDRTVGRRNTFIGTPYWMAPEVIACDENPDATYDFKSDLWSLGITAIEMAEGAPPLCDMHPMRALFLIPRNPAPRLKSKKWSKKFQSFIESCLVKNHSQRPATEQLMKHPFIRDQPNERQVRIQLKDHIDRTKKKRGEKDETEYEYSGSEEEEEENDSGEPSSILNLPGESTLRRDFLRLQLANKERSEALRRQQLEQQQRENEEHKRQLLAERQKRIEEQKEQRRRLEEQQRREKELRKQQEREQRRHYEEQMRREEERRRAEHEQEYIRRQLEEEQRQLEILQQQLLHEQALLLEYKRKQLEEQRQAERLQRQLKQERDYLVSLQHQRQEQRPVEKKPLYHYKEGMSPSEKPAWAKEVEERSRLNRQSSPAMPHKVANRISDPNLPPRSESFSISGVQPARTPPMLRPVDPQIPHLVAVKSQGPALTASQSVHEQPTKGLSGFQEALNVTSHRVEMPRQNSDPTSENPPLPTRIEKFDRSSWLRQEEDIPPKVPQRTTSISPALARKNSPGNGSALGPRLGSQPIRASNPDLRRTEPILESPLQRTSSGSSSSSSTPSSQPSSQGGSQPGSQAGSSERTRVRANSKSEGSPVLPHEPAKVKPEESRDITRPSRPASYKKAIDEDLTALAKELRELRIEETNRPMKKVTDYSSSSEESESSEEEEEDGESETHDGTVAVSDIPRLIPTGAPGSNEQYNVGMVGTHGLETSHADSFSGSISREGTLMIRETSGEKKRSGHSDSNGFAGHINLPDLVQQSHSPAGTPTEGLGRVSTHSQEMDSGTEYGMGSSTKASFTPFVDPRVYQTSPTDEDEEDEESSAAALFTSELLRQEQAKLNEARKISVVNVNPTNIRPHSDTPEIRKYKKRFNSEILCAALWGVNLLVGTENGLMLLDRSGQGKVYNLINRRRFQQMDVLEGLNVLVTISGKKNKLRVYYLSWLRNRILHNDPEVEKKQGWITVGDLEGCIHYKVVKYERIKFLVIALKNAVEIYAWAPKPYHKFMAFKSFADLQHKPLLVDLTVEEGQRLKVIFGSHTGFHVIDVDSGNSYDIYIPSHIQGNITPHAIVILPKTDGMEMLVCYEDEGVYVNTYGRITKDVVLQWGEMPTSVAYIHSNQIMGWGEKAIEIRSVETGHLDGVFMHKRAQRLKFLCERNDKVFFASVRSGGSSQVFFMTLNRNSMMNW

Cn1c(=O)[nH]c2ccc(-c3cccc(C(=O)NC4CCn5ccnc5C4)c3)cc21 (stereo not drawn) [Z36-MP5]
remaining binding at 1 µM [1]: 82%
remaining binding at 1 µM [2]: 82%
remaining binding at 1 µM [3]: 72%
remaining binding at 1 µM (BTK): 89%
remaining binding at 1 µM (CTK): 61%
remaining binding at 1 µM (DCAMKL2): 90%
remaining binding at 1 µM (DYRK1A): 60%
remaining binding at 1 µM (EPHA4): 58%
remaining binding at 1 µM (ERK1): 98%
remaining binding at 1 µM (INSR): 57%
remaining binding at 1 µM (KIT-autoinhibited): 57%
remaining binding at 1 µM (MAP4K2): 81%
remaining binding at 1 µM (MARK4): 95%
remaining binding at 1 µM (MERTK): 70%
remaining binding at 1 µM (MST1): 84%
remaining binding at 1 µM (NEK1): 81%
remaining binding at 1 µM (NEK7): 89%
remaining binding at 1 µM (NLK): 59%
remaining binding at 1 µM (PIK3CA(H1047L)): 90%
remaining binding at 1 µM [4]: 51%
remaining binding at 1 µM (SNRK): 78%
remaining binding at 1 µM (TESK1): 100%
remaining binding at 1 µM (TNIK): 98%
remaining binding at 1 µM (TSSK1B): 92%
